# Columns and labels:
# [1] = tested on: Plasmodium falciparum; assay: Antiplasmodial activity against chloroquine-sensitive Plasmodium falciparum D10 infected in human red blood cells after 72 hrs by parasite lactate dehydrogenase assay; assay type: functional, organism-based; details: D10, 72 h
# [2] = tested on: Plasmodium falciparum; assay: Ratio of chloroquine IC50 to compound IC50 for chloroquine-sensitive Plasmodium falciparum D10; assay type: functional
# [3] = tested on: Plasmodium falciparum; assay: Antiplasmodial activity against chloroquine-resistant Plasmodium falciparum W2 infected in human red blood cells after 72 hrs by parasite lactate dehydrogenase assay; assay type: functional, organism-based; details: W2, 72 h
# [4] = tested on: Plasmodium falciparum; assay: Ratio of chloroquine IC50 to compound IC50 for chloroquine-resistant Plasmodium falciparum W2; assay type: functional
# [5] = Resistance index, ratio of IC50 for chloroquine-resistant Plasmodium falciparum W2 to IC50 for chloroquine-sensitive Plasmodium falciparum D10; assay type: functional
# [6] = Cytotoxicity against human HMEC1 cells after 72 hrs by MTT assay; assay type: cell-based; details: HMEC-1, 72 h
# [7] = Selectivity index, ratio of IC50 for human HMEC1 cells to IC50 for chloroquine-resistant Plasmodium falciparum W2; assay type: toxicity, cell-based; details: read-out: Ratio IC50
# [8] = Lipophilicity, log P of the compound at pH 7.4; assay type: physicochemical; details: buffer
# [9] = n-octanol-KCl distribution coefficient, log D of the compound at pH 7.4; assay type: physicochemical
# [10] = Inhibition of beta-hematin formation assessed as ratio of drug to haemin for 50% inhibition by BHIA assay; assay type: functional
# [11] = Dissociation constant, pKa of the compound; assay type: physicochemical
SMILES,IC50 [1] [nM],Ratio IC50 [2],IC50 [3] [nM],Ratio IC50 [4],Ratio IC50 [5],IC50 [6] [nM],selectivity ratio [7],logP ([8]; read-out: logP),logD [9],logP [8],IC50 [10] [molar ratio],pKa [11]
Clc1ccc2c(NCc3nc(-c4ccccc4)c(CN4CCCC4)[nH]3)ccnc2c1,22.9,0.71,91.6,1.67,4,8660,95,6.35,4.22,–,–,–
Cn1c(CNc2ccnc3cc(Cl)ccc23)nc(-c2ccccc2)c1CN1CCCC1,11.8,1.18,26.5,16.27,2.2,28600,1080,–,7.57,9.18,–,–
CN(C)c1ccc(-c2c[nH]c(CNc3ccnc4cc(Cl)ccc34)n2)cc1,13.4,0.82,20.9,13.8,1.6,6670,320,5.07,4.75,–,0.42,–
Clc1ccc2c(NCc3nc(-c4ccccc4)c(CN4CCCC4)s3)ccnc2c1,19.3,0.81,60.1,4.93,3.1,30400,506,6.78,6.01,–,–,–
Clc1ccc2c(NCc3ncc[nH]3)ccnc2c1,152,0.11,384,0.39,2.5,–,–,2.82,2.39,–,–,–
Clc1ccc2c(NCc3nc(-c4ccccc4)c[nH]3)ccnc2c1,116,0.14,85.1,1.78,0.7,13100,154,4.98,4.62,–,–,–
Cc1ccc(-c2nc(CNc3ccnc4cc(Cl)ccc34)[nH]c2CN2CCCC2)cc1,7.4,1.49,69.3,4.17,9.4,3660,53,6.45,4,–,–,–
Cn1cc(-c2ccccc2)nc1CNc1ccnc2cc(Cl)ccc12,30,0.46,70.3,6.14,2.3,17500,249,4.99,4.57,–,–,–
CCN(CC)Cc1ccc(Nc2ccnc3cc(Cl)ccc23)s1,1860,0.08,2580,0.06,1.4,–,–,–,–,–,–,–
Clc1ccc2c(NCc3nc(-c4ccccc4)co3)ccnc2c1,270,0.05,513,0.84,1.9,–,–,4.85,4.81,–,–,6.36
Clc1ccc(-c2c[nH]c(CNc3ccnc4cc(Cl)ccc34)n2)cc1,25.8,0.43,60.5,4.77,2.3,7450,123,5.34,5.1,–,–,–
Fc1ccc(-c2nc(CNc3ccnc4cc(Cl)ccc34)[nH]c2CN2CCCC2)cc1,25.7,0.57,197,2.11,7.7,–,–,6.78,4.77,–,–,–
CCN(CC)CCCC(C)Nc1ccnc2cc(Cl)ccc12 (configuration not stated) [CHLOROQUINE],–,–,–,–,–,> 38000,–,–,–,–,1.94,–
Clc1ccc2c(NCc3nc4ccccc4[nH]3)ccnc2c1,70.6,0.2,256,1.68,3.6,2400,9,3.78,3.56,–,–,–
Clc1ccc2c(Nc3ccc(CN4CCCC4)s3)ccnc2c1,2660,0.01,4220,0.04,1.6,–,–,3.93,2.98,–,–,–
Cc1ccc(-c2c[nH]c(CNc3ccnc4cc(Cl)ccc34)n2)cc1,17.2,0.64,40.7,7.1,2.4,7770,191,4.95,4.66,–,–,–
CCN(CC)Cc1cnc(CNc2ccnc3cc(Cl)ccc23)[nH]1,191,0.07,3800,0.04,19.9,–,–,–,–,–,–,–
Clc1ccc2c(NCc3nc(-c4ccc(N5CCCC5)cc4)c[nH]3)ccnc2c1,18.2,0.77,35.3,12.22,1.9,2430,69,8.87,8.53,–,–,–
Clc1ccc2c(NCc3ncc(CN4CCCC4)[nH]3)ccnc2c1,399,0.04,3120,0.05,7.8,–,–,4.78,1.42,–,–,–
CN(C)c1cccc(-c2c[nH]c(CNc3ccnc4cc(Cl)ccc34)n2)c1,32,0.46,53.5,7.78,1.7,8970,168,5.86,5.48,–,–,–
Fc1ccc(-c2c[nH]c(CNc3ccnc4cc(Cl)ccc34)n2)cc1,52.1,0.28,82.4,5.05,1.6,9920,120,5.31,4.93,–,–,–
CCN(CC)Cc1[nH]c(CNc2ccnc3cc(Cl)ccc23)nc1-c1ccccc1,28,0.58,85.8,1.78,3.1,9140,107,–,–,–,–,–
Clc1ccc2c(NCc3ccc(CN4CCCC4)s3)ccnc2c1,12.5,1.11,26.3,16.43,2.1,24200,921,4.42,2.77,–,1.08,–
Clc1ccc2c(NCc3nc(-c4ccccc4)cs3)ccnc2c1,212,0.07,396,1.09,1.9,–,–,5.2,5.15,–,–,6.45
Clc1ccc(-c2nc(CNc3ccnc4cc(Cl)ccc34)[nH]c2CN2CCCC2)cc1,5.5,2,27.2,10.62,4.9,2060,76,6.96,4.63,–,–,–
CCN(CC)Cc1[nH]c(CNc2ccnc3cc(Cl)ccc23)nc1-c1ccc(Cl)cc1,8.8,1.25,27.6,10.47,3.1,2440,89,–,–,–,–,–

# — ChEMBL document CHEMBL2146461, “Synthesis and antiplasmodial activity of new heteroaryl derivatives of 7-chloro-4-aminoquinoline” (Bioorg Med Chem, 2012)
